{"source": "paper PMC9686516", "about": "“Pharmacokinetic Characteristics of Nebulized Colistimethate Sodium Using Two Different Types of Nebulizers in Critically Ill Patients with Ventilator-Associated Respiratory Infections” (Antibiotics, 2022)", "origin": "cited, not measured here", "key": {"Pseudomonas aeruginosa": {"tested_on": "Pseudomonas aeruginosa", "settings": "animal thigh and lung infection models; cited from earlier work"}, "[1]": {"settings": "cited from earlier work", "method": "The median (IQR) values of colistin concentration in plasma (Ccolistin, plasma) using VMN nebulization were 0.6 (0.4–0.7) mg/L, 2.3 (1.4–2.7) mg/L, 1.7 (1.1–2.0) mg/L, 0.8 (0.7–0.9) mg/L, 0.4 (0.3–0.6) mg/L, and 0.2 (0.2–0.4) mg/L, at 0.5, 1, 2, 4, 6 and 8 h post-nebulization. The corresponding values with JN were 0.1 (0.1–0.1) mg/L, 0.1 (0.1–0.2) mg/L, 0.3 (0.3–0.4) mg/L, 0.2 (0.2–0.2) mg/L, 0.1 (0.1–0.1) mg/L, and 0.1 (0.1–0.1) mg/L (Figure 3). Median Ccolistin, plasma was greater than 2 mg/L at 1 h post-nebulization, a value which is the average concentration, in steady-state conditions, th ... || Contrarily, our results were only marginally compatible with the results of Boisson et al. and Gkoufa et al.. In the former study, the range of colistin concentration in the ELF following a 2 mIU inhalation spanned from 9.53 to 1137 mg/L [14], while it was between 0.8 mg/L and 57.9 mg/L in the present study. In the latter study, the exact values were not reported, however in the figured data it was shown that after an inhalation of 3 to 5 mIU of CMS, formed colistin concentrations were in the range of 10^2 to 10^3 mg/L [16]. Again, it is not known whether these differences we ..."}, "[2]": {"settings": "adjunctive aerosolized colistin; meta-analysis of mostly observational data; cited from earlier work", "excerpt": "The rationale has been the theoretic ability to achieve sufficient concentration in the infectious milieu of the lung parenchyma while sparing any significant systemic adverse outcome. In contrast to these theoretical considerations, inhaled CMS has only had modest efficacy and in ..."}, "[3]": {"settings": "1 mIU of CMS via VMN; similar ICU setting; median (IQR); cited from earlier work", "method": "In this single-center study, we compared the pharmacokinetic properties of formed colistin in the ELF and the plasma compartment when inhaled CMS, at a typical dose, was administered either via a VMN or a generic JN. […] Indeed, the median total (as opposed to unbound) AUC0–24 in the ELF for the two modalities were 86.2 and 91.5 mg/L*h for VMN and JN, respectively. […] However, the ELF exposure was similar, despite the higher dose, probably due to a higher clearance from the lung compartment in our study, as evidenced by the ... || Contrarily, our results were only marginally compatible with the results of Boisson et al. and Gkoufa et al.. In the former study, the range of colistin concentration in the ELF following a 2 mIU inhalation spanned from 9.53 to 1137 mg/L [14], while it was between 0.8 mg/L and 57.9 mg/L in the present study. In the latter study, the exact values were not reported, however in the figured data it was shown that after an inhalation of 3 to 5 mIU of CMS, formed colistin concentrations were in the range of 10^2 to 10^3 mg/L [16]. Again, it is not known whether these differences we ..."}}, "note": "Where a SMILES comes first, the peptide text is derived from it. Bridges are numbered along the chain shown (N, C = ends). [ ]: non-standard residue; d: D form. The star is where a group is joined. X1 = CC[C@H](C)CCCCC(=O)*; Dab = NCC[C@H](N)C(=O)O"}
{"smiles": "CC[C@H](C)CCCCC(=O)N[C@@H](CCN)C(=O)N[C@H](C(=O)N[C@@H](CCN)C(=O)N[C@H]1CCNC(=O)[C@H]([C@@H](C)O)NC(=O)[C@H](CCN)NC(=O)[C@H](CCN)NC(=O)[C@H](CC(C)C)NC(=O)[C@@H](CC(C)C)NC(=O)[C@H](CCN)NC1=O)[C@@H](C)O", "note": "[colistin] (X1-[Dab]T[Dab][Dab][Dab][dL]L[Dab][Dab]T; lactam 4-C)", "values": [{"measurement": "fAUC/MIC predicting 1-log killing", "setting": "Pseudomonas aeruginosa", "result": "12.2–22.8"}, {"measurement": "average plasma concentration, in steady-state conditions, that predicts acute renal failure", "setting": "[1]", "result": 2, "unit": "mg/L"}, {"measurement": "formed colistin plasma values linked to the occurrence of nephrotoxicity", "setting": "[1]", "result": "2 to 2.5", "unit": "mg/L"}, {"measurement": "decrease in the odds of infection-related mortality", "setting": "[2]", "result": "~40", "unit": "%"}, {"measurement": "increase in the odds of clinical cure", "setting": "[2]", "result": "approximately 60%"}, {"measurement": "Cmax in ELF", "setting": "[3]", "result": "6.7 (4.8–10.1) mg/L"}]}
